The values that follow come from a melting point compilation (Tetko et al.; mined from patent text by program, amines drawn as free bases though some values may be those of a salt).

A value given as a limit tells only on which side of the number the result lay.

As to `COC(=O)C1=C(C)NC(N)=C(C#N)C1c1ccc(C(F)(F)F)cc1` (stereo not given), the melting point lay within 210 to 214 °C. Turning to `CS(=O)(=O)c1ccc(C(CC2CCCC2)C(=O)Nc2ccncn2)cc1Br` (stereo not given), the melting point fell in the range of 75 to 80 °C. The figure for `COC(=O)C(NC(=O)c1ccccc1)c1ccc(-c2ccc(S(=O)(=O)O)cc2)cc1` (stereo not given) is more than 250 °C; for `Cc1oc(-c2ccccc2)nc1CCOc1ccc(C[C@@H](C(=O)O)N2CCN(S(=O)(=O)c3ccccc3)CC2)cc1` it is 180 to 182 °C; for `Cc1cc(Oc2cccc(C#N)n2)n(C)n1` it is 95 °C. The figure for `Cc1cc(-c2cc(CN3CCN(C)CC3)c(=O)n(Cc3ccccc3Cl)n2)ccc1F` is 150 to 151 °C. Take `CCOC(=O)C=CC(=O)N1CC1C#N` (stereo not given): the melting point lay within 54 to 56 °C. The result for `[N-]=[N+]=Nc1cc(=O)n(-c2ccccc2)nc1C1=NCCN1` reads 238 to 240 °C; that for `O=CNCc1ccc2[nH]cc(CCN3C(=O)c4ccccc4C3=O)c2c1`, 45 °C; that for `Oc1nc2ccccc2c(O)c1O`, more than 250 °C.

For `O=C(NCCO)c1cccc(-c2ccc3c(n2)C(Oc2ccc(Cl)cc2Cl)CC3)c1` (stereo not given), the melting point was 181 to 182 °C.

With `CNc1c(SC(F)(F)F)c(C#N)nn1-c1c(Cl)cc(C(F)(F)F)cc1Cl`, the melting point lay in the range of 208 to 210 °C.

Molecule `O=C1CCCc2nc3ccccc3c(NCc3cccc(F)c3)c21` registered a melting point of 156 to 157 °C. The figure for `O=C1CCCCCC1=CC(=O)c1ccccc1` is 91 to 92 °C; for `CCCCn1c(=S)c2c(ncn2CC(C)=O)n(CC)c1=O` it is 173 to 174 °C.

In the case of `COc1cc(CNC(=S)NC(COC(=O)C(C)(C)C)Cc2ccc(C)c(C)c2)ccc1OCCN` (stereo not given), the melting point lay within 62 to 63 °C. The result for `CC(C)(C)OC(=O)N1CCCN(CC2=Nc3cccc4c(=O)[nH]nc(c34)N2)CC1` reads 219 to 221 °C; that for `CC(C)n1nc(-c2sc(C(=O)NCCc3ccccn3)nc2-c2ccc(F)cc2)ccc1=O`, 144 to 145 °C. The figure for `O=C1NC(=O)c2cc(CCCCOc3ccccc3)ccc21` is 102 to 103 °C; for `CCOC(=O)c1sc(-c2ccc(Cl)cc2Cl)nc1C` it is 100 °C.

For the molecule `CCOC(Nc1ccccc1)(OCC)C1(Cl)C=C(C)N=C(C(=O)c2ccc(Cl)cc2)C1` (stereo not given), the melting point lay within 134 to 135 °C.

On to `O=c1[nH]c2ccc([C@H]3CC[C@H](NCCCc4ccc(F)cc4)CC3)cc2[nH]1`, for which the melting point is 336 to 339 °C. The result for `Cc1cc(O)nc(Oc2cc(C(F)(F)F)nn2C)c1` reads 159 °C. `C1=NCCN1c1ccccc1` displayed a melting point of 45 °C.

In the case of `CCCCc1cc2c3n(ccc-2n1)CC(C)=N3`, the melting point was 162 °C. The figure for `CCCCCN(CCC12CC3CC(CC(C3)C1)C2)C(=O)NCCc1ccc(O)cc1` is 96.3 to 99.4 °C; for `CN(C)CCCCCCCOc1ccc(-c2nnc(CSCCOc3ccccc3)o2)cc1` it is 39 to 40 °C.

`Cc1c(O)ccc2c(O)c(C(=O)Nc3cccc(F)c3)c(=O)oc12` came in with a melting point of 287 to 289 °C. The result for `Cc1ccc(C(=O)NC(NC(=O)Nc2ccccc2)C(Cl)(Cl)Cl)cc1` (stereo not given) reads 230 to 233 °C. The figure for `Nc1cc(C(F)(F)F)ccc1S(=O)(=O)c1ccccc1` is 142 to 143 °C; for `O=C1CCN(c2cc(Cl)ncn2)CC1` it is 100 to 103 °C.

`Clc1cc(-c2csc(Cc3ccccc3)n2)ccn1` displayed a melting point of 104 to 106 °C.

Regarding `N#CC1CN1C(=O)NS(=O)(=O)c1ccccc1` (stereo not given), the melting point is 103 to 108 °C. The figure for `CCCCc1oc2ccc([N+](=O)[O-])cc2c1C(=O)c1ccc(OCCCCCBr)cc1` is 55 °C; for `CC(C)(C)C(=O)Nc1nc(O)c2cc(C#C[Si](C)(C)C)cnc2n1` it is more than 250 °C.

As for `O=c1[nH]cnc2ccc(C=Cc3ccncc3)cc12`, the melting point fell in the range of 307 to 309 °C.

The molecule `CN1CC(Oc2ccc(Nc3cc(-c4cccc(-n5ncc6cc(C(C)(C)C)cc(F)c6c5=O)c4CO)cn(C)c3=O)nc2)C1` had a melting point of more than 300 °C. The figure for `CCC1c2nc[nH]c2CCN1C(=S)NC` (stereo not given) is 230 °C.

As for `OCCCc1cc(-c2ccc(Cl)cc2)n(-c2ccc(Cl)nn2)n1`, the melting point was in the range of 131 to 133 °C. The figure for `COc1cccc(CN2Cc3cc(OC)c(O)cc3C(OC)C2)c1` (stereo not given) is 133 to 134 °C; for `CC1(C)CC(O)CC(C)(C)N1CC#CCN1C(C)(C)CC(O)CC1(C)C` it is 203 °C.

The molecule `O=c1c2c(c3cccnc3n1-c1cccc(Cl)c1)OC(CO)C2` (stereo not given) gave a melting point of 243 to 245 °C.

`Cc1cccc(C)c1N1CCc2c(C)nc3ccccc3c21` registered a melting point of 149 to 152 °C.

As to `O=c1nc(-c2ccccc2)c2ccsc2n1CC1CC1`, the melting point lay in the range of 191 to 192 °C. The result for `CC(=O)Nc1nc(N)nc(C2CCC(c3ccccc3)CC2)n1` (stereo not given) reads more than 260 °C. The result for `COc1cc2nc(N3CCN(c4ccnc(N(C)C5CCCC5)n4)CC3)nc(N)c2cc1OC` reads 333 to 334 °C; that for `Cc1cccc(C)c1CNc1cc(C(=O)N2CC2)cc2c1nc(C)n2C`, 201 to 202 °C; that for `O=C1CC(c2ccccc2)Cc2c1ccn2C(=O)c1ccccc1` (stereo not given), 140 to 142 °C.

`C(=C\c1cc(/C=C/c2ccc3cc[nH]c3c2)n[nH]1)/c1ccc(-c2ccccc2)cc1` gave a melting point of 273 to 276 °C. The result for `CSc1ccc(NC(C#N)c2ccc(C)cc2)cc1` (stereo not given) reads 186 to 187 °C.

Turning to `C=CC(=O)Oc1c(Cc2cc(C)cc(C(C)(C)C)c2O)cc(C)cc1C(C)(C)C`, the melting point was in the range of 132 to 134 °C. The figure for `CCOC(=O)c1c(-c2ccncc2)[nH]c(-c2ccncc2)c1C` is 206 to 208 °C; for `COc1cc(Nc2nccc(-c3ccc(Cl)nc3)n2)cc(OC)c1OC` it is 191 to 192 °C. The result for `COC(=O)COc1ccc(C(=O)CCN2CCN(c3ccncc3)CC2)cc1` reads 93 to 95 °C; that for `COc1ccc(C(CN(C)C)C2(O)CCCCC2)cc1` (stereo not given), 78.3 to 79.5 °C; that for `Nc1nonc1C(=O)NCCCCCC(=O)NO`, 150 to 152 °C. On to `CC(C)C[C@H](O)[C@H](O)[C@@H](N)CC1CCCCC1`, for which the melting point was 110 to 111 °C.

`COc1ccc(NN=C(Sc2ccc(CF)cc2)C(C)=O)cc1` yielded a melting point of 103 to 104 °C. In turn, `COC(=O)Cc1c(Cl)cc(C(=O)c2ccc(C)cc2)n1C` registered a melting point of 144 to 146 °C. The result for `COc1ccc2[nH]cc(CCCNCC3COc4ccccc4O3)c2c1` (stereo not given) reads 135 to 136 °C; that for `CC1(C)COC(CCc2ccc(N)cc2)OC1`, 93.5 to 94.5 °C; that for `CCCCCCCCCCCCc1ccc(CCC(COC(C)=O)(COC(C)=O)NC(C)=O)cc1`, 111 to 113 °C. For `CN1C(=O)N(CC(COc2ccc(-c3ccc(S(C)(=O)=O)cc3)cc2)N(O)C=O)C(=O)C1(C)C` (stereo not given), the melting point lay in the range of 174 to 175 °C.

`CCOc1cc(N2CCOCC2)c(OCC)cc1N=NNN1CCOCC1` registered a melting point of 137 to 139 °C. `CCCCCC(COc1ccc(C(=O)O)cc1)c1ccc2c(c1)SCCC2(C)C` (stereo not given) returned a melting point of 123 to 124 °C. The figure for `COc1cc(CN2C(=O)CN(C)C2=O)cc(OC)c1-c1ccc(C[C@H](NC(=O)c2c(Cl)cccc2Cl)C(=O)O)cc1` is 248 °C.

On to `OCCc1c(C2=CCC(c3ccccc3)(N3CCCC3)CC2)[nH]c2ccc(F)cc12` (stereo not given), for which the melting point lay within 188 to 191 °C.

`COc1ccc2ccccc2c1CC(NC(C)=O)C(=O)O` (stereo not given) displayed a melting point of 201 °C. The result for `Nc1ncnc2c1ncn2C1OC(CS)C(O)C1O` (stereo not given) reads 108 to 109 °C; that for `CCOC(=O)CCC(=O)Nc1n[nH]c2cc(C(F)(F)F)ccc12`, 248 °C.

Molecule `COc1ccc(-c2ccc(C(=O)NN)cc2)cc1OC1CCCC1` displayed a melting point of 167 to 168 °C. The result for `COc1ccc2c(c1O)C13CCN(CC4CC4)C(C2)C1CC(C)C(=O)C3` (stereo not given) reads 176 to 178 °C; that for `COc1ccc2c(Cl)cc3nc(C(=O)O)cn3c2c1`, 277 to 278 °C.

In turn, `CCOC(=O)C(=O)Nc1cccc(-c2nnn[nH]2)c1` gave a melting point of 192 to 193 °C. The figure for `CCc1cc(-c2ccccc2)nn1-c1ccc([N+](=O)[O-])cc1` is 112 to 113 °C; for `CCNC(=O)CCCC=CCC1C(O)CC(O)C1C=CC(O)CCc1ccccc1` (stereo not given) it is 64 to 66 °C; for `CC(C)(C)C(NC(=O)c1cccc(F)c1)Nc1c(Nc2cccnc2)c(=O)c1=O` (stereo not given) it is 231 to 232 °C. The result for `CCCn1c(=O)n(CC(C)O)c(=O)c2[nH]c(C34CC5CC(CC3C5)C4)nc21` (stereo not given) reads 195 to 197 °C; that for `Cc1c(N2CCNCC2)nn2c(-c3ccncc3)c(-c3ccc(F)cc3)nc2c1C`, 233 to 235 °C; that for `Cn1c(=O)c2c(-c3nc(C4CC4)no3)ncn2c2cccnc21`, 266 to 269 °C. The figure for `COCCc1nc2c(N)nc3ccccc3c2n1CCCCCS(=O)(=O)c1ccccc1` is 172 to 175 °C; for `CCOC1C=CC(=O)N1` (stereo not given) it is 50 to 52 °C; for `O=C(O)c1cnc2cc(C3CCCCC3)ccc2c1O` it is 241 to 243 °C. In the case of `C#CCOc1ccc(OC)cc1-c1nc2ncccc2[nH]1`, the melting point came to 220 °C. The figure for `CNC(=O)c1cccc(C2C(C(=O)c3ccc(OC)cc3)=C(O)C(=O)N2c2nnc(C)s2)c1` (stereo not given) is 238 °C; for `COc1ccc2cc(C=CC(C)=O)ccc2c1` it is 114 to 116 °C; for `O=C(Nc1cccnc1)N1CCN(c2cncc(-c3ccc(F)cc3F)n2)CC1` it is 155 to 156 °C. The figure for `COc1ccc(Cl)cc1NC(=O)[C@H]1[C@H](c2cccc(C)c2)C1(C)C` (relative stereo) is 148 to 150 °C. The figure for `CC(=O)Oc1ccccc1CC1c2ccccc2Oc2ccccc21` is 77 to 79 °C. In the case of `CCOC(=O)C1=Cc2cc(I)ccc2OC1C(F)(F)F` (stereo not given), the melting point is 105 to 106 °C.

The melting point is the temperature, or range, at which the solid turns liquid.
